Experimental data from patent US5300279A, “Organic amine phosphonic acid complexes for the treatment of calcific tumors” (The Dow Chemical Company, priority 1990, dated 1994).
Read-outs that look alike come from different tables or passages of the source.

Excerpt: Quantitative biodistributions were obtained by injecting 50-100 microliters of the composition into the tail vein of unanesthetized male Sprague Dawley rats. The rats were then placed in cages lined with absorbent paper in order to collect all urine excreted prior to sacrifice. After a given period of time, the rats were sacrificed by cervical dislocation and the various tissues dissected. The samples were then rinsed with saline, blotted dry on absorbent paper and weighed. The radioactivity in the samples was measured with a NaI scintillation counter.
Whenever in the following examples and tables data is presented on the administered dose of radioactivity, the numbers given represent the percentage of the administered dose which localized in the indicated tissue. The ratios of radioactivity observed in bone relative to blood and muscle were calculated based on the percent dose per gram in the bone and in the blood and muscle. Whenever the ratios of radioactivity found in bone to that found in nonosseous tissue is given, the calculation was made as indicated above on a percent dose per gram basis.
A series of rats was injected with compositions containing Sm-153 EDTMP (compositions prepared as in Example 2) and sacrified in groups of five at various intervals.

SMILES: O=P([O-])(O)CN(CCN(CP(=O)([O-])O)CP(=O)(O)O)CP(=O)([O-])O.[153Sm+3] [Example 2]
- Average Percent of Injected Dose, Blood (1 Hour): .532% of Injected Dose
- Average Percent of Injected Dose, Kidneys (1 Hour): .466% of Injected Dose
- Average Percent of Injected Dose, Liver (1 Hour): .322% of Injected Dose
- Average Percent of Injected Dose, Skeleton (1 Hour): 58% of Injected Dose
- Average Percent of Injected Dose, Urine (1 Hour): 47% of Injected Dose
- Bone/Blood (1 Hour): 120
- Bone/Muscle (1 Hour): 300
- Average Percent of Injected Dose, Blood (2 Hours): .032% of Injected Dose
- Average Percent of Injected Dose, Kidneys (2 Hours): .254% of Injected Dose
- Average Percent of Injected Dose, Liver (2 Hours): .252% of Injected Dose
- Average Percent of Injected Dose, Skeleton (2 Hours): 58% of Injected Dose
- Average Percent of Injected Dose, Urine (2 Hours): 49% of Injected Dose
- Bone/Blood (2 Hours): 1800
- Bone/Muscle (2 Hours): 1500
- Average Percent of Injected Dose, Blood (5 Hours): .008% of Injected Dose
- Average Percent of Injected Dose, Kidneys (5 Hours): .364% of Injected Dose
- Average Percent of Injected Dose, Liver (5 Hours): .370% of Injected Dose
- Average Percent of Injected Dose, Skeleton (5 Hours): 59% of Injected Dose
- Average Percent of Injected Dose, Urine (5 Hours): 46% of Injected Dose
- Bone/Blood (5 Hours): 4200
- Bone/Muscle (5 Hours): 3600
- Average Percent of Injected Dose, Blood (15 Min.): 5.852% of Injected Dose
- Average Percent of Injected Dose, Kidneys (15 Min.): 1.745% of Injected Dose
- Average Percent of Injected Dose, Liver (15 Min.): .959% of Injected Dose
- Average Percent of Injected Dose, Skeleton (15 Min.): 48% of Injected Dose
- Average Percent of Injected Dose, Urine (15 Min.): 28% of Injected Dose
- Bone/Blood (15 Min.): 7
- Bone/Muscle (15 Min.): 30
- Average Percent of Injected Dose, Blood (24 Hours): .007% of Injected Dose
- Average Percent of Injected Dose, Kidneys (24 Hours): .250% of Injected Dose
- Average Percent of Injected Dose, Liver (24 Hours): .349% of Injected Dose
- Average Percent of Injected Dose, Skeleton (24 Hours): 52% of Injected Dose
- Average Percent of Injected Dose, Urine (24 Hours): 55% of Injected Dose
- Bone/Blood (24 Hours): 6700
- Bone/Muscle (24 Hours): 2400
- Average Percent of Injected Dose, Blood (30 Min.): 2.304% of Injected Dose
- Average Percent of Injected Dose, Kidneys (30 Min.): .805% of Injected Dose
- Average Percent of Injected Dose, Liver (30 Min.): .526% of Injected Dose
- Average Percent of Injected Dose, Skeleton (30 Min.): 53% of Injected Dose
- Average Percent of Injected Dose, Urine (30 Min.): 42% of Injected Dose
- Bone/Blood (30 Min.): 20
- Bone/Muscle (30 Min.): 70
- Average Percent of Injected Dose, Blood (48 Hours): .006% of Injected Dose
- Average Percent of Injected Dose, Kidneys (48 Hours): .286% of Injected Dose
- Average Percent of Injected Dose, Liver (48 Hours): .458% of Injected Dose
- Average Percent of Injected Dose, Skeleton (48 Hours): 60% of Injected Dose
- Average Percent of Injected Dose, Urine (48 Hours): 50% of Injected Dose
- Bone/Blood (48 Hours): 8200
- Bone/Muscle (48 Hours): 2800
- Average Percent of Injected Dose, Blood (72 Hours): .006% of Injected Dose
- Average Percent of Injected Dose, Kidneys (72 Hours): .216% of Injected Dose
- Average Percent of Injected Dose, Liver (72 Hours): .492% of Injected Dose
- Average Percent of Injected Dose, Skeleton (72 Hours): 57% of Injected Dose
- Average Percent of Injected Dose, Urine (72 Hours): 53% of Injected Dose
- Bone/Blood (72 Hours): 7800
- Bone/Muscle (72 Hours): 3400
- clearance of the radioactivity from the skeletal system (rats, up to 72 hours, words): no significant clearance of the radioactivity from the skeletal system
- blood clearance (rats, words): rapid blood clearance
- uptake of the radioactivity in bone (rats, words): rapid uptake of the radioactivity in bone
